We go through 33 compounds from patent US20120115845A1, “THERAPEUTIC AGENTS” (priority 2007, published 2012).

Test [1] concerns the target T1, human GHS receptor (Homo sapiens, UniProt Q92847). The experiment in a line: h bind IC50 (binding assay, Table 1). To be noted: for IC50: human receptor, Table 1.
For test [2], the target named is T1, human GHS receptor. The experiment in a line: Ghrelin IP1 agonist assay (IP1 HTRF). In kind it is cell-based. Details: expressed in transfected cells; host or cells: HEK293s. To be noted: for Emax: 2 h, read-out: h IP1 ag %; for EC50: HEK293s cells stably expressing human GHS receptor, 2 hours at 37° C., read-out: h IP1 ag EC50. As for the experimental part:
In HEK293s cells stably expressing human GHS receptor (In-house), agonist activity was assessed by measuring intracellular myo-Inositol 1 phosphate (IP1) using the IP1 HTRF assay kit (Cisbio International).
Cells were harvested using accutase (Sigma), spun down at 1000 rpm for 5 minutes and resuspended in stimulation buffer (as above) containing 0.02% fatty acid free BSA at a density of 1.43E6cells/ml.
Agonist effect of the compound was expressed as % maximal effect of GHRP-6 (5 μM: Bachem). Sigmoidal curves were fitted by Origin 7.5 Client and EC50 values determined.

[3] abbreviates: agonist effect as % maximal effect of GHRP-6 (5 μM).

T1 sequence (Q92847 whole entry): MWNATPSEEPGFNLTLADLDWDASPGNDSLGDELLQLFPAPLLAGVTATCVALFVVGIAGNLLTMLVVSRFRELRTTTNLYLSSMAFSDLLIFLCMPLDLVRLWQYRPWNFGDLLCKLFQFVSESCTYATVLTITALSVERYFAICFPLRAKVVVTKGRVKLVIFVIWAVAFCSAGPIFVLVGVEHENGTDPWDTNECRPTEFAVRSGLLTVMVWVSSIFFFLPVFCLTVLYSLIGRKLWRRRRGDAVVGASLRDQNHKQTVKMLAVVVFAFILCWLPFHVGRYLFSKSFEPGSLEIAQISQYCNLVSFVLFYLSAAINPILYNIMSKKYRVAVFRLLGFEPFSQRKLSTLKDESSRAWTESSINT

For `COc1cc(Cl)c(C(=O)NC(=O)Nc2nc3ccc(S(C)(=O)=O)cc3s2)cc1OC` [2-chloro-4,5-dimethoxy-N-[(6-methylsulfonyl-1,3-benzothiazol-2-yl)carbamoyl]benzamide], on human GHS receptor [1], the “IC50 in the binding assay” value is “did not have IC50s in the range of about 0.001 μM to about 10 μM”.

As to `CS(=O)(=O)c1ccc2nc(NC(=O)NC(=O)c3cc(F)ccc3Cl)sc2c1` [2-chloro-5-fluoro-N-[(6-methylsulfonylbenzothiazol-2-yl)carbamoyl]benzamide], the “IC50 in the binding assay” value on human GHS receptor [1] is on record as “did not have IC50s in the range of about 0.001 μM to about 10 μM”.

Broadly, the IC50 is the concentration that gives 50% inhibition. The low end stands for inhibition by little substance, the high end for a need for much substance. On to `CN(C)CCS(=O)(=O)c1ccc2nc(NC(=O)NC(=O)c3ccccc3Cl)sc2c1` [Example 3, 2-Chloro-N-[[6-(2-dimethylaminoethylsulfonyl)benzothiazol-2-yl]carbamoyl]benzamide], for which the IC50 at human GHS receptor [1] came out at 1120 nM.

Take `O=C(NC(=O)c1ccccc1Cl)Nc1nc2ccc(S(=O)(=O)CCN3CCC(O)C3)cc2s1` (stereo not shown) [Example 5, 2-Chloro-N-[[6-[2-(3-hydroxypyrrolidin-1-yl)ethylsulfonyl]benzothiazol-2-yl]carbamoyl]benzamide]: the IC50 at human GHS receptor [1] was 403 nM.

`O=C(NC(=O)c1ccccc1Cl)Nc1nc2ccc(S(=O)(=O)CCN3CCCC3)cc2s1` [Example 6, 2-Chloro-N-[[6-(2-pyrrolidin-1-ylethylsulfonyl)benzothiazol-2-yl]carbamoyl]benzamide]: on human GHS receptor [1], the IC50 stood at 44.4 nM.

Take `CCN(CC)CCS(=O)(=O)c1ccc2nc(NC(=O)NC(=O)c3ccccc3Cl)sc2c1` [Example 7, 2-Chloro-N-[[6-(2-diethylaminoethylsulfonyl)benzothiazol-2-yl]carbamoyl]benzamide]: the IC50 at human GHS receptor [1] was found to be 670 nM.

On human GHS receptor [1], `COCCN(C)CCS(=O)(=O)c1ccc2nc(NC(=O)NC(=O)c3ccccc3Cl)sc2c1` [Example 9, 2-Chloro-N-[[6-[2-(2-methoxyethyl-methyl-amino)ethylsulfonyl]benzothiazol-2-yl]carbamoyl]benzamide] registered an IC50 of 247 nM.

The compound `CN(CCO)CCS(=O)(=O)c1ccc2nc(NC(=O)NC(=O)c3ccccc3Cl)sc2c1` [Example 11, 2-Chloro-N-[[6-[2-(2-hydroxyethyl-methyl-amino)ethylsulfonyl]benzothiazol-2-yl]carbamoyl]benzamide] showed an IC50 at human GHS receptor [1] of 347 nM.

At human GHS receptor [1], `CCC(C)NCCS(=O)(=O)c1ccc2nc(NC(=O)NC(=O)c3ccccc3Cl)sc2c1` (stereo not shown) [Example 12, N-[[6-[2-(Butan-2-ylamino)ethylsulfonyl]benzothiazol-2-yl]carbamoyl]-2-chloro-benzamide] came in with an IC50 of 179 nM.

On to `CCN(CCOC)CCS(=O)(=O)c1ccc2nc(NC(=O)NC(=O)c3ccccc3Cl)sc2c1` [Example 15, 2-Chloro-N-[[6-[2-(ethyl-(2-methoxyethyl)amino)ethylsulfonyl]benzothiazol-2-yl]carbamoyl]benzamide], for which the IC50 on human GHS receptor [1] came out at 1080 nM.

Take `CC1CN(CCS(=O)(=O)c2ccc3nc(NC(=O)NC(=O)c4ccccc4Cl)sc3c2)CC(C)O1` (stereo not shown) [Example 19, 2-Chloro-N-[[6-[2-(2,6-dimethylmorpholin-4-yl)ethylsulfonyl]benzothiazol-2-yl]carbamoyl]benzamide]: on human GHS receptor [1], the IC50 came out at 1050 nM.

Turning to `CC(NCCS(=O)(=O)c1ccc2nc(NC(=O)NC(=O)c3ccccc3Cl)sc2c1)c1ccccc1` (stereo not shown) [Example 20, 2-Chloro-N-[[6-[2-(1-phenylethylamino)ethylsulfonyl]benzothiazol-2-yl]carbamoyl]benzamide], at human GHS receptor [1], the IC50 is 184 nM.

The compound `O=C(NC(=O)c1ccccc1Cl)Nc1nc2ccc(S(=O)(=O)CCNCC3CCCO3)cc2s1` (stereo not shown) [Example 22, 2-Chloro-N-[[6-[2-(oxolan-2-ylmethylamino)ethylsulfonyl]benzothiazol-2-yl]carbamoyl]benzamide] registered an IC50 at human GHS receptor [1] of 184 nM.

For `CN1CCN(CCS(=O)(=O)c2ccc3nc(NC(=O)NC(=O)c4ccccc4Cl)sc3c2)CC1` [Example 23, 2-Chloro-N-[[6-[2-(4-methylpiperazin-1-yl)ethylsulfonyl]benzothiazol-2-yl]carbamoyl]benzamide], the IC50 at human GHS receptor [1] stood at 82.7 nM.

Compound `CCN1CCN(CCS(=O)(=O)c2ccc3nc(NC(=O)NC(=O)c4ccccc4Cl)sc3c2)CC1` [Example 29, 2-Chloro-N-[[6-[2-(4-ethylpiperazin-1-yl)ethylsulfonyl]benzothiazol-2-yl]carbamoyl]benzamide] registered an IC50 on human GHS receptor [1] of 60.9 nM.

`O=C(NC(=O)c1ccccc1Cl)Nc1nc2ccc(S(=O)(=O)CCNCCF)cc2s1` [Example 31, 2-Chloro-N-[[6-[2-(2-fluoroethylamino)ethylsulfonyl]benzothiazol-2-yl]carbamoyl]benzamide]: the IC50 on human GHS receptor [1] came out at 54.6 nM.

In the case of `CC1(NCCS(=O)(=O)c2ccc3nc(NC(=O)NC(=O)c4ccccc4Cl)sc3c2)CC1` [Example 39, 2-Chloro-N-[[6-[2-[(1-methylcyclopropyl)amino]ethylsulfonyl]benzothiazol-2-yl]carbamoyl]benzamide], the IC50 on human GHS receptor [1] worked out at 179 nM.

In the case of `COCCS(=O)(=O)c1ccc2nc(NC(=O)NC(=O)c3ccccc3Cl)sc2c1` [Example 40, 2-Chloro-N-[[6-(2-methoxyethylsulfonyl)benzothiazol-2-yl]carbamoyl]benzamide], at human GHS receptor [1], the IC50 was 1820 nM.

On to `COCCOCCS(=O)(=O)c1ccc2nc(NC(=O)NC(=O)c3ccccc3Cl)sc2c1` [Example 42, 2-Chloro-N-[[6-[2-(2-methoxyethoxy)ethylsulfonyl]benzothiazol-2-yl]carbamoyl]benzamide], for which, at human GHS receptor [1], the IC50 was 177 nM.

Consider `O=C(NC(=O)c1cc(-n2cccc2)ccc1Cl)Nc1nc2ccc(S(=O)(=O)CCCN3CCC3)cc2s1` [Example 74, N-[[6-[3-(Azetidin-1-yl)propylsulfonyl]benzothiazol-2-yl]carbamoyl]-2-chloro-5-pyrrol-1-yl-benzamide], for which the IC50 at human GHS receptor [1] is 1 nM.

`CC(C)NCCCS(=O)(=O)c1ccc2nc(NC(=O)NC(=O)c3cc(-n4cccc4)ccc3Cl)sc2c1` [Example 75, 2-Chloro-N-[[6-[3-(propan-2-ylamino)propylsulfonyl]benzothiazol-2-yl]carbamoyl]-5-pyrrol-1-yl-benzamide] showed an IC50 on human GHS receptor [1] of 7.4 nM.

In the case of `COCCNCCCS(=O)(=O)c1ccc2nc(NC(=O)NC(=O)c3cc(-n4cccc4)ccc3Cl)sc2c1` [Example 76, 2-Chloro-N-[[6-[3-(2-methoxyethylamino)propylsulfonyl]benzothiazol-2-yl]carbamoyl]-5-pyrrol-1-yl-benzamide], the IC50 on human GHS receptor [1] was 11.4 nM.

`O=C(NC(=O)c1cc(-n2cccc2)ccc1Cl)Nc1nc2ccc(S(=O)(=O)CCN3CCC3)cc2s1` [Example 81, N-[[6-[2-(Azetidin-1-yl)ethylsulfonyl]benzothiazol-2-yl]carbamoyl]-2-chloro-5-pyrrol-1-yl-benzamide] showed an IC50 on human GHS receptor [1] of 2 nM.

As for `CC(C)NCCS(=O)(=O)c1ccc2nc(NC(=O)NC(=O)c3cc(-n4cccc4)ccc3Cl)sc2c1` [Example 82, 2-Chloro-N-[[6-[2-(propan-2-ylamino)ethylsulfonyl]benzothiazol-2-yl]carbamoyl]-5-pyrrol-1-yl-benzamide], at human GHS receptor [1], the IC50 was determined as 1.6 nM.

On human GHS receptor [1], `CC(C)NCCS(=O)(=O)c1ccc2nc(NC(=O)NC(=O)c3cc(-n4cccc4)ccc3I)sc2c1` [Example 84, 2-Iodo-N-(6-(2-(isopropylamino)ethylsulfonyl)benzothiazol-2-ylcarbamoyl)-5-(1H-pyrrol-1-yl)benzamide] returned a 50% inhibitory concentration (IC50) of 7.1 nM.

By EC50 is commonly meant the concentration that produces a half-maximal response. As for `CS(=O)(=O)c1ccc2nc(NC(=O)NC(=O)c3c(F)cccc3F)sc2c1` [Example 112, 2,6-Difluoro-N-[(6-methylsulfonylbenzothiazol-2-yl)carbamoyl]benzamide], the Emax on human GHS receptor [2] (setting [3]) came to 38.4%. The EC50 on human GHS receptor [2] was determined as 142 nM.

`NC(=O)COCCS(=O)(=O)c1ccc2nc(NC(=O)NC(=O)c3ccccc3Cl)sc2c1` [Example 120, N-[[6-[2-(Carbamoylmethoxy)ethylsulfonyl]benzothiazol-2-yl]carbamoyl]-2-chloro-benzamide]: the Emax at human GHS receptor [2] (setting [3]) is 29.5%. Also, on human GHS receptor [2], the EC50 worked out at 211 nM.

In the case of `O=C(NC(=O)c1ccccc1Cl)Nc1nc2ccc(S(=O)(=O)CCOCCO)cc2s1` [Example 121, 2-Chloro-N-[[6-[2-(2-hydroxyethoxy)ethylsulfonyl]benzothiazol-2-yl]carbamoyl]benzamide], the IC50 at human GHS receptor [1] amounted to 400 nM.

As for `CS(=O)(=O)c1ccc2nc(NC(=O)NC(=O)c3ccccc3-c3ccccc3F)sc2c1` [Example 125, 2-(2-Fluorophenyl)-N-[(6-methylsulfonylbenzothiazol-2-yl)carbamoyl]benzamide], the Emax on human GHS receptor [2] (setting [3]) was 31.8%. The EC50 on human GHS receptor [2] was determined as 252 nM.

Regarding `CS(=O)(=O)c1ccc2nc(NC(=O)NC(=O)c3ccccc3-c3ccc(F)cc3)sc2c1` [Example 126, 2-(4-Fluorophenyl)-N-[(6-methylsulfonylbenzothiazol-2-yl)carbamoyl]benzamide], the Emax at human GHS receptor [2] (setting [3]) was 38.4%. Further, at human GHS receptor [2], the EC50 was 1030 nM.

Take `C=CS(=O)(=O)c1ccc2nc(NC(=O)NC(=O)c3ccccc3Cl)sc2c1` [Example 129, 2-Chloro-N-[(6-ethenylsulfonylbenzothiazol-2-yl)carbamoyl]benzamide]: the IC50 on human GHS receptor [1] amounted to 219 nM.

Consider `CCS(=O)(=O)c1ccccc1C(=O)NC(=O)Nc1nc2ccc(S(C)(=O)=O)cc2s1` [Example 135, 2-Ethyl sulfonyl-N-[(6-methylsulfonylbenzothiazol-2-yl)carbamoyl]benzamide], for which the “h IP1 ag %” value at human GHS receptor [2] (setting [3]) amounted to 18.23%.

On human GHS receptor [1], `O=C(NC(=O)c1ccccc1Cl)Nc1nc2ccc(S(=O)(=O)C3CCCN(CC4CC4)C3)cc2s1` (stereo not shown) [Example 143, 2-Chloro-N-[[6-[[1-(cyclopropylmethyl)-3-piperidyl]sulfonyl]benzothiazol-2-yl]carbamoyl]benzamide] returned an IC50 of 484 nM.
